The source of these data is US20050130906A1, “Amelioration of macular degeneration and other ophthalmic diseases” (priority 2003, published 2005).

The test system of assay [1] is blue light-illuminated A2E-laden RPE (ARPE-19 cells). As to the kind of experiment: Protection against A2E-mediated blue light damage (MTT assay and two-color fluorescence cell death assay). Format: cell-based. The text has this: The ability of Tempol-H to protect against A2E-mediated blue light damage was examined.
Materials and Methods: ARPE-19 cells that have accumulated A2E in culture were exposed to 430±20 nm light delivered from a halogen source. This wavelength of light is relevant since (i) the excitation maximum of A2E is approximately 430 nm, and (ii) light of this wavelength reaches the RPE in vivo while light of wavelengths longer than 400 nm are not absorbed by the cornea and lens. Cell death in blue light-illuminated A2E-laden RPE was compared with and without pre-treatment (24 hours) with Tempol-H. The loss of cell viability was quantified by: • 1. A calorimetric microtiter assay based on ability of healthy metabolically active cells to cleave the yellow tetrazolium salt MTT to purple formazan crystals. Cell viability was assessed 24 hours after blue light illumination. Triplicate wells were assayed in each of 2 experiments.
2. Two-color fluorescence assay in which the nuclei of all dead cells appear red due to staining by a membrane-impermeant dye (Dead Red nuclei acid stain, Molecular Probes) with the nuclei of all cells stained blue with DAPI. Cell viability was assessed 8 hours after blue light illumination. Replicates were assayed by counting cells within 5 microscopic fields within the area of illumination in each well and 3 wells were assayed per experiment. Data are based on 3 experiments.
In general terms: Tetrazolium assays rely on reduction of a dye to a coloured formazan, in cell work by metabolically active cells.

The subject of a further assay is lens epithelial cells. The following applies: Mitchell et al. 1991; Krishna et al. 1991; cited from earlier work.
A further assay concerns cataract. The following applies: Zigler et al., U.S. Pat. No. 6,001,853; cited from earlier work.
Assay [2] deals with retinal S-antigen-induced experimental autoimmune uveoretinitis (EAU). The conditions noted are these: rat model, after systemic injection; Zamir et al. 1999; cited from earlier work.

With `CC1(C)CC(O)CC(C)(C)N1O` [Tempol-H], the “protection of blue light-illuminated A2E-laden RPE cells” value in assay [1] (1 mM, FIG. 2) was “protection”. Besides, in assay [1] (blue light 430±20 nm, 24 hours pre-treatment, FIG. 1 and FIG. 2), the “protection against the death of A2E-laden RPE” value is “dose-dependent protection”. The “protection of blue light illuminated A2E-laden RPE cells” value in assay [1] (various concentrations, FIG. 1) is reported as “protect”. Moreover, the “protection of lens epithelial cells from oxidative damage” value with lens epithelial cells is “afforded no such protection”. Moreover, in the assay with cataract, the “anti-cataractogenic activity compared with the corresponding nitroxide” value is listed as “better anti-cataractogenic composition than the corresponding nitroxide”.
Turning to `CC1(C)CC(O)CC(C)(C)N1[O]` [tempol, 4-hydroxy-2,2,6,6,-tetramethylpiperidine-1-N-oxyl], the “severity of EAU” value in assay [2] was “reduced the severity”.
